Columns and labels:
[1] = xn = mol fraction of the nth substance listed; conditions: 101 kPa, Liquid, x2 = 0; for viscosity: Concentric cylinders viscometry; for mass density: Vibrating tube method
[2] = refractive index (Na D-line) (dimensionless); xn = mol fraction of the nth substance listed; conditions: 101 kPa, Liquid, Standard Abbe refractometry, x2 = 0
[3] = 298.15 K, 101.33 kPa, Liquid; for viscosity: Concentric cylinders viscometry; for mass density: Vibrating tube method
[4] = refractive index (Na D-line) (dimensionless); conditions: 298.15 K; 101.33 kPa; Liquid; Standard Abbe refractometry

CCC(C)=O [butanone] + CCOC(=O)C(C)O
Conditions | mass density, [1] [kg/m3] | refractive index, [2] | viscosity, [1] [mPa·s]
288.15 K | 811.324 | 1.3817 | 0.4217
293.15 K | 806.111 | 1.37918 | 0.4054
298.15 K | 800.872 | 1.37662 | 0.3888
303.15 K | 795.603 | 1.37402 | 0.3712
308.15 K | 790.3 | 1.37138 | 0.3542
313.15 K | 784.965 | 1.36871 | 0.3368
318.15 K | 779.589 | 1.36615 | 0.3194
323.15 K | 774.175 | 1.36338 | 0.3036

CN1CCCC1=O [N-methylpyrrolidone] + CCOC(=O)C(C)O
Conditions | mass density, [1] [kg/m3] | refractive index, [2] | viscosity, [1] [mPa·s]
288.15 K | 1039.4 | 1.47305 | 2.088
293.15 K | 1034.92 | 1.47088 | 1.91
298.15 K | 1030.45 | 1.4687 | 1.757
303.15 K | 1025.99 | 1.46651 | 1.623
308.15 K | 1021.52 | 1.46434 | 1.505
313.15 K | 1017.07 | 1.46211 | 1.401
318.15 K | 1012.61 | 1.45998 | 1.307
323.15 K | 1008.16 | 1.45783 | 1.231

CCC(C)=O [butanone]
Conditions | mass density [kg/m3] | refractive index | viscosity [mPa·s]
[3] | 800.872 | – | 0.3888
[4] | – | 1.37662 | –

Cc1ccccc1 [toluene]
Conditions | mass density [kg/m3] | refractive index | viscosity [mPa·s]
[3] | 862.206 | – | 0.567
[4] | – | 1.49299 | –

CCOC(=O)C(C)O (racemic) [DL-ethyl lactate]
Conditions | mass density [kg/m3] | refractive index | viscosity [mPa·s]
[3] | 1028.39 | – | 2.39
[4] | – | 1.41076 | –

Cc1ccccc1 [toluene] + CCOC(=O)C(C)O
Conditions | mass density, [1] [kg/m3] | refractive index, [2] | viscosity, [1] [mPa·s]
288.15 K | 871.501 | 1.49883 | 0.6251
293.15 K | 866.859 | 1.49592 | 0.5961
298.15 K | 862.206 | 1.49299 | 0.567
303.15 K | 857.541 | 1.49012 | 0.54
308.15 K | 852.861 | 1.48731 | 0.5128
313.15 K | 848.164 | 1.48454 | 0.4866
318.15 K | 843.444 | 1.48195 | 0.462
323.15 K | 838.707 | 1.47928 | 0.4435

CN1CCCC1=O [N-methylpyrrolidone]
Conditions | mass density [kg/m3] | refractive index | viscosity [mPa·s]
[3] | 1030.45 | – | 1.757
[4] | – | 1.4687 | –
